# Assay results reported in US9233979B2, “Compounds that are ERK inhibitors” (Merck Sharp & Dohme Corp., priority 2012, dated 2016).
# Target: phosphorylated active hERK2 enzyme (Homo sapiens (Human), UniProt P28482)
# Experiment: Active Human ERK2 (hERK2) Activity Assay (IMAP-FP)
# Type: biochemical
# Details: Table 5, 0.5 nM hERK2, 30 μM ATP, 10 point titration, read-out: AERK2 IC50
# How it was run: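 IMAP fluorescence-polarization kinase assay: 0.5 nM activated hERK2 with 900 nM unlabeled plus 80 nM labeled peptide and 30 μM ATP, reacted 60 min. Quenched with IMAP beads in binding buffer with 24 mM NaCl; FP read after 60 min equilibration.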
# phosphorylated active hERK2 enzyme, sequence (P28482 whole entry): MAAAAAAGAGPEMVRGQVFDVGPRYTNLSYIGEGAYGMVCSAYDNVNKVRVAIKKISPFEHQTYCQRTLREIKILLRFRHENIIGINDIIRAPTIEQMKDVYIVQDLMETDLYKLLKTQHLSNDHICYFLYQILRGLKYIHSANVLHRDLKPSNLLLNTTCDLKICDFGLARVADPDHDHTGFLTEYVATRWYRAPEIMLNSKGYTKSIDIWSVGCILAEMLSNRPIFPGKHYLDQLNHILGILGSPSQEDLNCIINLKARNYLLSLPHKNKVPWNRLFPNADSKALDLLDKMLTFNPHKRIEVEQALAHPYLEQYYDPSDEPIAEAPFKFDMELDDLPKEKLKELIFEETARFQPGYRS
row,IC50 [nM],Compound
1,0.4,"COC[C@@H](NC(=O)Nc1cc2[nH]nc(N3CCOCC3)c2cn1)c1ccccc1 [Example 30, 1-[(1S)-2-methoxy-1-phenylethyl]-3-(3-morpholin-4-yl-1H-pyrazolo[4,3-c]pyridin-6-yl)urea]"
2,13.8,"C[C@@H](NC(=O)Nc1cc2[nH]nc(N(C)C)c2cn1)c1ccccc1 [Example 19, 1-[3-(dimethylamino)-1H-pyrazolo[4,3-c]pyridin-6-yl]-3-[(1R)-1-phenylethyl]urea]"
3,1,"CCNc1n[nH]c2cc(NC(=O)N[C@H](C)c3ccc(F)cc3)ncc12 [Example 5, 1-[3-(ethylamino)-1H-pyrazolo[4,3-c]pyridin-6-yl]-3-[(1R)-1-(4-fluorophenyl)ethyl]urea]"
4,4.87,"CNc1n[nH]c2cc(NC(=O)N[C@H](C)c3ccccc3)ncc12 [Example 3, 1-[3-(methylamino)-1H-pyrazolo[4,3-c]pyridin-6-yl]-3-[(1R)-1-phenylethyl]urea]"
5,810,"COCCS(=O)(=O)Nc1n[nH]c2cc(NC(=O)N[C@H](C)c3ccccc3)ncc12 [Example 54, 2-methoxy-N-[6-({[(1R)-1-phenylethyl]carbamoyl}amino)-1H-pyrazolo[4,3-c]pyridin-3-yl]ethanesulfonamide]"
6,4.8,"COC[C@@H](NC(=O)Nc1cc2[nH]nc(N3CCC3)c2cn1)c1ccccc1 [Example 24, 1-(3-azetidin-1-yl-1H-pyrazolo[4,3-c]pyridin-6-yl)-3-[(1S)-2-methoxy-1-phenylethyl]urea]"

# Same assay, conditions: Table 6, 0.5 nM hERK2, 30 μM ATP, 10 point titration, read-out: AERK2 IC50
row,Compound,IC50 [nM]
1,"CN1C[C@@H](NC(=O)Nc2cc3[nH]nc(N)c3cn2)[C@H](c2ccccc2)C1 [Example 277, 1-(3-amino-1H-pyrazolo[4,3-c]pyridin-6-yl)-3-[(3S,4R)-1-methyl-4-phenylpyrrolidin-3-yl]urea]",3.2
2,"C[C@H]1Cc2nc(NC(=O)N[C@H](C)c3ccccc3)cc3[nH]nc(c23)N1 [Example 139, 1-((S)-4-methyl-1,3,4,5-tetrahydropyrazolo[3,4,5-de][1,6]naphthyridin-7-yl)-3-((R)-1-phenylethyl)urea]",5.5
3,"C[C@@H](NC(=O)Nc1cc2[nH]nc(Nc3ccc(F)cc3)c2cn1)c1ccccc1 [Example 116, 1-{3-[(4-fluorophenyl)-amino]-1H-pyrazolo[4,3-c]pyridin-6-yl}-3-[(1R)-1-phenylethyl]urea]",94.2
4,"Cc1nc(NC(=O)N[C@H](C)c2ccccc2)cc2[nH]nc(N3CCC[C@H]3C(=O)O)c12 [Example 332, 1-[4-methyl-6-({[(1R)-1-phenyl-ethyl]carbamoyl}-amino)-1H-pyrazolo[4,3-c]-pyridin-3-yl]proline]",74.7
5,"Nc1n[nH]c2cc(NC(=O)NCc3ccc(F)c(Cl)c3)ncc12 [Example 264, 1-(3-amino-1H-pyrazolo[4,3-c]-pyridin-6-yl)-3-(3-chloro-4-fluorobenzyl)urea]",940
6,"COC(=O)Nc1n[nH]c2cc(NC(=O)N[C@H](C)c3cccc(F)c3)ncc12 [Example 299, methyl [6-({[(1R)-1-(3-fluorophenyl)-ethyl]carbamoyl}-amino)-1H-pyrazolo[4,3-c]-pyridin-3-yl}-carbamate]",1.6
7,"COC(=O)Nc1n[nH]c2cc(NC(=O)N[C@H](C)c3ccc(Cl)c(Cl)c3)ncc12 [Example 302, methyl [6-({[(1R)-1-(3,4-dichloro-phenyl)ethyl]-carbamoyl}amino)-1H-pyrazolo[4,3-c]pyridin-3-yl]-carbamate]",0.7
8,"C[C@@H](O)[C@@H](NC(=O)Nc1cc2[nH]nc(N3CC4CC3CO4)c2cn1)c1ccccc1 (stereo partly drawn) [Example 111, 1-[(1S,2R)-2-hydroxy-1-phenylpropyl]-3-[3-(2-oxa-5-azabicyclo[2.2.1]-hept-5-yl)-1H-pyrazolo[4,3-c]-pyridin-6-yl]urea]",0.5
9,"Nc1n[nH]c2cc(NC(=O)NC3COc4ccccc4C3)ncc12 (stereo not drawn) [Example 257, 1-(3-amino-1H-pyrazolo[4,3-c]pyridin-6-yl)-3-(3,4-dihydro-2H-chromen-3-yl)urea]",37.1
10,"CC12CCC(O1)C1CN(c3n[nH]c4cc(NC(=O)N[C@@H](c5ccc(F)cc5)C(C)(C)O)ncc34)CC12 (stereo partly drawn) [Example 377, 1-[(1S)-1-(4-fluorophenyl)-2-hydroxy-2-methyl-propyl]-3-[3-(4-methyloctahydro-2H-4,7-epoxyisoindo1-2-yl)-1H-pyrazolo[4,3-c]-pyridin-6-yl]urea]",2.3
11,"COC[C@@H](NC(=O)Nc1cc2[nH]nc(N(CC3CCC3)CC3CCC3)c2cn1)c1ccccc1 [Example 157, 1-{3-[bis(cyclobutyl-methyl)amino]-1H-pyrazolo[4,3-c]pyridin-6-yl}-3-[(1S)-2-methoxy-1-phenylethyl]urea]",93.2
12,"C[C@@H](NC(=O)Nc1cc2[nH]nc(N3CCc4scnc4C3)c2cn1)c1ccc(F)cc1 [Example 63, 1-[3-(6,7-dihydro[1,3]thiazolo-[4,5-c]pyridin-5(4H)-yl)-1H-pyrazolo[4,3-c]pyridin-6-yl]-3-[(1R)-1-(4-fluorophenyl)ethyl]-urea]",5.8
13,"C[C@@H](NC(=O)Nc1cc2[nH]nc(NC(=O)OCC(F)F)c2cn1)c1ccc(F)cc1 [Example 405, 2,2-difluoroethyl [6-({[(1R)-1-(4-fluorophenyl)ethyl]carbamoyl}amino)-1H-pyrazolo[4,3-c]pyridin-3-yl]-carbamate]",21.6
14,"Nc1n[nH]c2cc(NC(=O)N[C@@H](c3ccccc3)[C@@H]3CCCO3)ncc12 [Example 152, 1-(3-amino-1H-pyrazolo[4,3-c]pyridin-6-yl)-3-{(S)-phenyl[(2S)-tetrahydrofuran-2-yl]methyl}urea]",0.9

# The next lines start with the values.
row,IC50 [nM],Compound
1,102,"C[C@@H](NC(=O)Nc1cc2[nH]nc(NC3CCNC3)c2cn1)c1ccccc1 (stereo partly drawn) [Example 184, 1-[(1R)-1-phenylethyl]-3-[3-(pyrrolidin-3-ylamino)-1H-pyrazolo[4,3-c]pyridin-6-yl]urea]"
2,27.9,"C[C@@H](NC(=O)Nc1cc2[nH]nc(NCC3CCCCO3)c2cn1)c1ccccc1 (stereo partly drawn) [Example 196, 1-[(1R)-1-phenylethyl]-3-{3-[(tetrahydro-2H-pyran-2-yl-methyl)amino]-1H-pyrazolo[4,3-c]-pyridin-6-yl}urea]"
3,3.2,"CC(Nc1n[nH]c2cc(NC(=O)N[C@H](C)c3ccccc3)ncc12)C(F)(F)F (stereo partly drawn) [Example 418, 1-[(1R)-1-phenylethyl]-3-{3-[(2,2,2-trifluoro-1-methylethyl)amino]-1H-pyrazolo[4,3-c]pyridin-6-yl}urea]"
4,34.2,"CCNc1n[nH]c2cc(NC(=O)NC(C)c3ccc(F)nc3)ncc12 (stereo not drawn) [Example 282, 1-[3-(ethylamino)-1H-pyrazolo[4,3-c]pyridin-6-yl]-3-[1-(6-fluoropyridin-3-yl)ethyl]urea]"
5,1.2,"C[C@@H](NC(=O)Nc1cc2[nH]nc(NC3CCSC3)c2cn1)c1ccccc1 (stereo partly drawn) [Example 359, 1-[(1R)-1-phenylethyl]-3-[3-(tetrahydrothiophen-3-ylamino)-1H-pyrazolo[4,3-c]-pyridin-6-yl]urea]"
6,17.9,"C=C(C)C1CC(CNc2n[nH]c3cc(NC(=O)N[C@H](C)c4ccccc4)ncc23)C1 (stereo partly drawn) [Example 180, 1-[3-({[3-(1-methylethenyl)-cyclobutyl]methyl}amino)-1H-pyrazolo[4,3-c]-pyridin-6-yl]-3-[(1R)-1-phenylethyl]urea]"
7,3.5,"CCNc1n[nH]c2cc(NC(=O)NCc3ccccc3OC(F)F)ncc12 [Example 228, 1-[2-(difluoro-methoxy)benzyl]-3-[3-(ethylamino)-1H-pyrazolo[4,3-c]pyridin-6-yl]urea]"
8,355,"C[C@@H](NC(=O)Nc1cc2[nH]nc(NC(=O)OCC(C)(C)C)c2cn1)c1ccccc1 [Example 224, 2,2-dimethylpropyl [6-({[(1R)-1-phenylethyl]-carbamoyl}amino)-1H-pyrazolo[4,3-c]pyridin-3-yl]-carbamate]"
9,0.8,"COC[C@@H](NC(=O)Nc1cc2[nH]nc(NC3CCOCC3)c2cn1)c1ccccc1 [Example 328, 1-[(1S)-2-methoxy-1-phenylethyl]-3-[3-(tetrahydro-2H-pyran-4-ylamino)-1H-pyrazolo[4,3-c]pyridin-6-yl]urea]"
10,27.4,"CCNc1n[nH]c2cc(NC(=O)N[C@@H](CN(C)C)c3ccccc3)ncc12 [Example 239, 1-[(1R)-2-(dimethylamino)-1-phenylethyl]-3-[3-(ethylamino)-1H-pyrazolo[4,3-c]pyridin-6-yl]urea]"
11,12.4,"CC(C)OC(=O)Nc1n[nH]c2cc(NC(=O)N[C@H](C)c3ccccc3)ncc12 [Example 223, 1-methylethyl[6-({[(1R)-1-phenylethyl]-carbamoyl}amino)-1H-pyrazolo[4,3-c]pyridin-3-yl]-carbamate]"
12,2.6,"COC[C@@H](NC(=O)Nc1cc2[nH]nc(NCC3CC(C(C)(C)O)C3)c2cn1)c1ccccc1 (stereo partly drawn) [Example 182, 1-[3-({[3-(1-hydroxy-1-methylethyl)-cyclobutyl]methyl}amino)-1H-pyrazolo[4,3-c]pyridin-6-yl]-3-[(1S)-2-methoxy-1-phenylethyl]urea]"
13,47.7,"C[C@@H](NC(=O)Nc1cc2[nH]nc(NC(=O)OC(C)(C)C)c2cn1)c1ccccc1 [Example 217, tert-butyl [6-({[(1R)-1-phenylethyl}-carbamoyl}amino)-1H-pyrazolo[4,3-c]pyridin-3-yl}-carbamate]"
14,359,"CCNc1n[nH]c2cc(NC(=O)N[C@H](c3ccccc3)[C@H]3CCCO3)ncc12 [Example 150, 1-[3-(ethylamino)-1H-pyrazolo[4,3-c]pyridin-6-yl]-3-{(R)-phenyl[(2R)-tetrahydrofuran-2-yl]methyl}urea]"
15,3.1,"C[C@@H](NC(=O)Nc1cc2[nH]nc(NCCC(=O)N(C)C)c2cn1)c1ccccc1 [Example 348, N,N-dimethyl-N~3~-[6-({[(1R)-1-phenylethyl]-carbamoyl}amino)-1H-pyrazolo[4,3-c]pyridin-3-yl]-beta-alaninamide]"
16,2.7,"COC1CC(CNc2n[nH]c3cc(NC(=O)N[C@H](C)c4ccccc4)ncc23)C1 (stereo partly drawn) [Example 170, 1-(3-{[(3-methoxy-cyclobutyl)methyl]amino}-1H-pyrazolo[4,3-c]-pyridin-6-yl)-3-[(1R)-1-phenylethyl]urea]"
